We go through 13 compounds from patent US9845319B2, “Amide substituted thiazoles as modulators of RORyt” (Janssen Pharmaceutica NV, priority 2014, dated 2017).

Assay [1] has as its target T1, human RORγt ligand binding domain (RORγt LBD) (Homo sapiens, UniProt P51449).
T1 construct: His-tag (N); TurboTEV protease cleavage site (ENLYFQG) (N); made in house; host or cells: E. coli (pHIS1, a modified pET expression vector)
T1 sequence (P51449 with tags, fused parts or gaps): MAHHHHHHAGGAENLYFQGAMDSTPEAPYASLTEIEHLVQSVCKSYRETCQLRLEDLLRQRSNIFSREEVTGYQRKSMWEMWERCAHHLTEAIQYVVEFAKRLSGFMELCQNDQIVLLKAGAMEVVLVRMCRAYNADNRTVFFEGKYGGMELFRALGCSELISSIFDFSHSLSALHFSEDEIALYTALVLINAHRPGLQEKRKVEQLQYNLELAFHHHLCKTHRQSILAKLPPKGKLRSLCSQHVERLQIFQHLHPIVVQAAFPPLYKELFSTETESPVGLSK
The assay is described as follows: RORγt ThermoFluor assay. Particulars: estimated from thermal shift concentration response. As to the method: This approach is applicable to a wide variety of systems, and rigorous in theoretical interpretation through quantitation of equilibrium binding constants (KD).
The shift in the melting point described as a ΔTm is proportional to the concentration and affinity of the ligand.
Protein and compound solutions are dispensed into black 384-well polypropylene PCR microplates (Abgene) and overlayed with silicone oil (1 μL, Fluka, type DC 200) to prevent evaporation.
Bar-coded assay plates are robotically loaded onto a thermostatically controlled PCR-type thermal block and then heated at a typical ramp-rate of 1° C./min for all experiments.
Fluorescence was measured by continuous illumination with UV light (Hamamatsu LC6) supplied via fiber optic and filtered through a band-pass filter (380-400 nm; >6 OD cutoff). Fluorescence emission of the entire 384-well plate was detected by measuring light intensity using a CCD camera (Sensys, Roper Scientific) filtered to detect 500±25 nm, resulting in simultaneous and independent readings of all 384 wells. Images were collected at each temperature, and the sum of the pixel intensity in a given area of the assay plate was recorded versus temperature. Reference wells contained RORγt without compounds, and the assay conditions were as follows: • 0.065 mg/mL RORγt • 60 μM 1,8-ANS • 100 mM Hepes, pH 7.0 • 10 mM NaCl • 2.5 mM GSH • 0.002% Tween-20
Project compounds were arranged in a pre-dosed mother plate (Greiner Bio-one) wherein compounds are serially diluted in 100% DMSO by 1:2 from a high concentration of 10 mM over 12 columns within a series (column 12 is a reference well containing DMSO, no compound). The compounds were robotically dispensed directly into assay plates (1×=46 nL) using a Hummingbird capillary liquid handling instrument (Digilab). Following compound dispense, protein and dye in buffer was added to achieve the final assay volume of 3 μL, followed by 1 μL of silicone oil.

The target in assay [2] is T2, full-length human RORγt (Homo sapiens, UniProt P51449).
T2 construct: expressed in transfected cells; host or cells: HEK293T, transiently transfected with pCMV-BD-ROR
T2 sequence (P51449 1-497 isoform P51449-2): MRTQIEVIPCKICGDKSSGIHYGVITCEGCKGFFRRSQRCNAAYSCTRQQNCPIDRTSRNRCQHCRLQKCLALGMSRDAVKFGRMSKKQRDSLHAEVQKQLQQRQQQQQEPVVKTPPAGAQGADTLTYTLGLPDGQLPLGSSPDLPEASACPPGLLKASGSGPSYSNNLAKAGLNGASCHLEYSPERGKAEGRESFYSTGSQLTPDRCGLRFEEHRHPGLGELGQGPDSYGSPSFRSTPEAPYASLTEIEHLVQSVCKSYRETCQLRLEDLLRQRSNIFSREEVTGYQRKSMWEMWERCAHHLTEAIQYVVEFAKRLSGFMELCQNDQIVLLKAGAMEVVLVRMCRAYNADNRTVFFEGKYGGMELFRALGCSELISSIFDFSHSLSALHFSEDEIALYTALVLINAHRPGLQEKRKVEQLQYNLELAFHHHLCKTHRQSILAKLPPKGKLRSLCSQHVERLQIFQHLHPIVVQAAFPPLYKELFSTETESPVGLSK
Kind of assay: RORγt (full-length human) Reporter Assay, Conditions A. Format: cell-based. The settings on record: for IC50: HEK293T cells, GAL4-DBD-RORγt, luciferase, read-out: RORγt (FL) Reporter Assay A, IC50; for inhibition at 6 µM: read-out: RORγt (FL) Reporter Assay A, % inhibition @ 6 μM, 6 μM compound; for inhibition at 2 µM: read-out: RORγt (FL) Reporter Assay A, % inhibition (* at 2 μM), 2 μM compound concentration (footnote *). On the procedure: After overnight (16 to 20 hours) incubation, media were removed and cells were lysed with 20 μL 1× Passive Lysis Buffer (Promega) for 10-15 minutes. Luminescence was measured using a BMG LUMIstar OPTIMA plate reader, after addition of 75 μL/well firefly luciferase buffer, followed by 75 μL/well Renilla luciferase buffer. To calculate the effect of compounds on RORγt activity, firefly values were normalized against values of DMSO only and values of reference compound at saturating concentration, then further normalized against Renilla signals. IC50s were generated by plotting final Renilla normalized data against compound concentration and percent inhibition was calculated against DMSO control.

On to `C[C@H]1CCCCN1C(=O)c1nc(-c2nnc(CC(C)(C)C(=O)O)o2)sc1-c1ccc(C(O)(C(F)(F)F)C(F)(F)F)c(Cl)c1Cl` [Example 2/1, (S)-3-(5-(5-(2,3-Dichloro-4-(1,1,1,3,3,3-hexafluoro-2-hydroxypropan-2-yl)phenyl)-4-(2-methylpiperidine-1-carbonyl)thiazol-2-yl)-1,3,4-oxadiazol-2-yl)-2,2-dimethylpropanoic acid], for which the Kd (commonly the constant that tells how readily two partners part at equilibrium) in assay [1] was 0.98 nM. In assay [2], the IC50 (commonly the concentration needed to halve the response being measured) came to 230 nM and the inhibition – broadly, the change of the read-out against control, counted positive when it falls – at 6 µM came out at 102%.
In the same order, the values of `C[C@H](NS(=O)(=O)c1ccc(-c2sc(-c3nnc(CC(C)(C)O)o3)nc2C(=O)N2CCC(F)(F)CC2)c(Cl)c1Cl)C(F)(F)F` [Example 3, (S)-2,3-Dichloro-4-(4-(4,4-difluoropiperidine-1-carbonyl)-2-(5-(2-hydroxy-2-methylpropyl)-1,3,4-oxadiazol-2-yl)thiazol-5-yl)-N-(1,1,1-trifluoropropan-2-yl)benzenesulfonamide] are 1.6 nM, 26 nM and 107%.
In the case of `C[C@H](NS(=O)(=O)c1ccc(-c2sc(-c3nnc(CC(C)(C)O)o3)nc2C(=O)N2CCC(F)(F)C2)c(Cl)c1Cl)C(F)(F)F` [Example 3/1, (S)-2,3-Dichloro-4-(4-(3,3-difluoropyrrolidine-1-carbonyl)-2-(5-(2-hydroxy-2-methylpropyl)-1,3,4-oxadiazol-2-yl)thiazol-5-yl)-N-(1,1,1-trifluoropropan-2-yl)benzenesulfonamide], the dissociation constant (Kd) in assay [1] was 16 nM. In assay [2], the half-maximal inhibitory concentration (IC50) is 57 nM and the inhibition at 6 µM is 109%.
Consider `C[C@H](NS(=O)(=O)c1ccc(-c2sc(-c3nnc(CC(C)(C)O)o3)nc2C(=O)N2CC(F)(F)C[C@@H]2C)c(Cl)c1Cl)C(F)(F)F` [Example 3/2, 2,3-Dichloro-4-(4-((S)-4,4-difluoro-2-methylpyrrolidine-1-carbonyl)-2-(5-(2-hydroxy-2-methylpropyl)-1,3,4-oxadiazol-2-yl)thiazol-5-yl)-N—((S)-1,1,1-trifluoropropan-2-yl)benzenesulfonamide], for which, in assay [1], the dissociation constant (Kd) is 0.59 nM. For the same compound, in assay [2], the IC50 amounted to 23 nM and the inhibition at 6 µM was 107%.
The like results for `CCN(CC)C(=O)c1nc(-c2nnc(CC(C)(C)O)o2)sc1-c1ccc(S(=O)(=O)N[C@@H](C)C(F)(F)F)c(Cl)c1Cl` [Example 3/3, (S)-5-(2,3-Dichloro-4-(N-(1,1,1-trifluoropropan-2-yl)sulfamoyl)phenyl)-N,N-diethyl-2-(5-(2-hydroxy-2-methylpropyl)-1,3,4-oxadiazol-2-yl)thiazole-4-carboxamide] were, in that order, 10 nM, 27 nM and 107%.
Regarding `CC(C)(O)Cc1nnc(-c2nc(C(=O)N3CCC(F)CC3)c(-c3ccc(C(O)(C(F)(F)F)C(F)(F)F)c(Cl)c3Cl)s2)o1` [Example 3/4, (5-(2,3-Dichloro-4-(1,1,1,3,3,3-hexafluoro-2-hydroxypropan-2-yl)phenyl)-2-(5-(2-hydroxy-2-methylpropyl)-1,3,4-oxadiazol-2-yl)thiazol-4-yl)(4-fluoropiperidin-1-yl)methanone], in assay [1], the Kd is 24 nM. Also, in assay [2], the IC50 is 50 nM and the inhibition at 2 µM is 106%.
As to `CC(C)(O)Cc1nnc(-c2nc(C(=O)N3CC[C@H](F)C3)c(-c3ccc(C(O)(C(F)(F)F)C(F)(F)F)c(Cl)c3Cl)s2)o1` [Example 3/6, (S)-(5-(2,3-Dichloro-4-(1,1,1,3,3,3-hexafluoro-2-hydroxypropan-2-yl)phenyl)-2-(5-(2-hydroxy-2-methylpropyl)-1,3,4-oxadiazol-2-yl)thiazol-4-yl)(3-fluoropyrrolidin-1-yl)methanone], the Kd in assay [1] is 76 nM. In addition, in assay [2], the IC50 was determined as 370 nM and the inhibition at 6 µM worked out at 104%.
Regarding `C[C@H](NS(=O)(=O)c1ccc(-c2sc(-c3nnc(CC(C)(C)O)o3)nc2C(=O)N2CCC(F)(F)CC2)c(OC(F)F)c1F)C(F)(F)F` [Example 3/7, (S)-3-(Difluoromethoxy)-4-(4-(4,4-difluoropiperidine-1-carbonyl)-2-(5-(2-hydroxy-2-methylpropyl)-1,3,4-oxadiazol-2-yl)thiazol-5-yl)-2-fluoro-N-(1,1,1-trifluoropropan-2-yl)benzenesulfonamide], the equilibrium dissociation constant (Kd) in assay [1] is 81 nM. Besides, in assay [2], the IC50 turned out to be 290 nM and the inhibition at 6 µM turned out to be 103%.
In the case of `CC1CCN(C(=O)c2nc(-c3nnc(C(C)(C)O)o3)sc2-c2ccc(S(=O)(=O)N[C@@H](C)C(F)(F)F)c3ccccc23)CC1` [Example 4, (S)-4-(2-(5-(2-Hydroxypropan-2-yl)-1,3,4-oxadiazol-2-yl)-4-(4-methylpiperidine-1-carbonyl)thiazol-5-yl)-N-(1,1,1-trifluoropropan-2-yl)naphthalene-1-sulfonamide], the Kd in assay [1] was 1.5 nM. For the same compound, in assay [2], the IC50 was determined as 19 nM and the inhibition at 2 µM came to 103%.
As to `C[C@H](NS(=O)(=O)c1ccc(-c2sc(-c3nnc(C(C)(C)O)o3)nc2C(=O)N2CCCC[C@@H]2C)c(Cl)c1Cl)C(F)(F)F` [Example 4/3, 2,3-Dichloro-4-(2-(5-(2-hydroxypropan-2-yl)-1,3,4-oxadiazol-2-yl)-4-((S)-2-methylpiperidine-1-carbonyl)thiazol-5-yl)-N—((S)-1,1,1-trifluoropropan-2-yl)benzenesulfonamide], the Kd in assay [1] was 0.38 nM. Moreover, in assay [2], the IC50 was 26 nM and the inhibition at 6 µM came out at 105%.
As to `C[C@H](NS(=O)(=O)c1ccc(-c2sc(-c3nnco3)nc2C(=O)N2CCC(F)(F)CC2)c(Cl)c1Cl)C(F)(F)F` [Example 4/5, (S)-2,3-Dichloro-4-(4-(4,4-difluoropiperidine-1-carbonyl)-2-(1,3,4-oxadiazol-2-yl)thiazol-5-yl)-N-(1,1,1-trifluoropropan-2-yl)benzenesulfonamide], the Kd in assay [1] was 12 nM. Further, in assay [2], the IC50 amounted to 52 nM and the inhibition at 6 µM was determined as 110%.
In the same order, the values of `CCN(CC(F)(F)F)C(=O)c1nc(-c2nnc(C(C)(C)O)o2)sc1-c1ccc(S(=O)(=O)N[C@@H](C)C(F)(F)F)c(Cl)c1Cl` [Example 4/6, (S)-5-(2,3-Dichloro-4-(N-(1,1,1-trifluoropropan-2-yl)sulfamoyl)phenyl)-N-ethyl-2-(5-(2-hydroxypropan-2-yl)-1,3,4-oxadiazol-2-yl)-N-(2,2,2-trifluoroethyl)thiazole-4-carboxamide] are 6.3 nM, 23 nM and 101%.
In the same order, the values of `CC1CCN(C(=O)c2nc(-c3nnc(C(N)=O)o3)sc2-c2ccc(S(=O)(=O)N[C@@H](C)C(F)(F)F)c3ccccc23)CC1` [Example 5, (S)-5-(4-(4-Methylpiperidine-1-carbonyl)-5-(4-(N-(1,1,1-trifluoropropan-2-yl)sulfamoyl)naphthalen-1-yl)thiazol-2-yl)-1,3,4-oxadiazole-2-carboxamide] are 37 nM, 170 nM and 106%.
